Read-outs that look alike come from different tables or passages of the source. One block for each substance: values may come before it. Square brackets hold non-standard residues; d marks the D form. Ends that are not written are not given here. pGlu = O=C1CC[C@@H](C(=O)O)N1
What was measured:
[1] = tested on: male Wistar rats; assay: Haematology assays in normal Wistar rats; assay type: in vivo, rat
Method: (§1) Whole blood samples were collected into plastic microcentrifuge tubes with EDTA-coated capillary tubes. A minimum sample volume of 20 μL was required for the analyses by the Toronto Centre for Phenogenomics (Mount Sinai Hospital, Toronto) using the Hemavet 950Fs Hematology Analyzer. From the whole blood samples, serum was separated from the cells and fibrin by centrifuging the collection tubes for five minutes at 7000 g at 25° C. Afterwards, immediately following collection of serum, the samples were stored and maintained at a freezing temperature of −80° C.
(§2) Haematology assays were performed on physiological normal rat serum and from Type II Diabetic GK rats obtained at the end of the in vivo studies noted herein in which TCAP-1 was administered to the normal rats and plasma glucose levels were monitored over the course of 1-2 weeks. […] Results are illustrated in FIGS. 6A to 6L.

[2] = Uptake and clearance of TCAP-1 in plasma after IV or SC injection (TCAP ELISA); assay type: in vivo, rat; settings: for half-life: rat, in vivo
Method: Male Wistar rats weighing 400-450 g were obtained from Charles River Laboratories (Montreal, Canada). Rats were singly-housed in standard Plexiglas shoebox cages under standard laboratory conditions, (12 h light:dark cycle, lights on at 0700) with food and water available ad libitum. Testing took place between 0900 and 1200 hours. Rats were given one week to acclimatize to the laboratory before surgery. Rats were anesthetized with isoflurane (2-3% in 100% O2) and a catheter was implanted into the jugular vein.
The K37 biotinylated TCAP was diluted into 200 ul physiological saline to contain 10.5 ug for 5 nM/kg dose and 52.5 ug for 25 nM/kg dose. The rats weighed 400-450 g. 200 ul of peptide containing solution was delivered through the cannula, different syringe containing saline was connected and 200 ul of saline was delivered to push the peptide into the bloodstream. The third syringe containing the heparin solution was used to fill the line with the lock, 150-200 ul. After 5 min, the lock solution was aspirated into the syringe, and also about 150 ul of the blood were aspirated and disposed off in case of the local contamination with high peptide concentrations. 200 ul of the blood was sampled in a fresh syringe, line flushed with saline first (200 ul) and heparin saline next (150-200 ul).
(§3) Rats were gently restrained, cannula clamped and unplugged, 1 ml syringe with blunt needle attached to the end of the polyethylene 50 line and the lock solution containing heparin 50-100 U/ml was removed. The line was clamped and a new syringe with a blunt needle attached for withdrawing about 200 ul blood. The line was clamped and syringe removed to recover the blood. This blood sample was used to determine a baseline level of activity. All blood samples were incubated at a room temperature for 10-20 min and centrifuged at 3000 rpm for 5 min to recover the serum. The serum was frozen on dry ice and kept at −80° C. until the assay.
as §3, with “K37 TCAP was biotin labeled according to the biotinylation method above. Rats” for “Rats”
For IV administration, rats were gently restrained during the injection procedure. The IV cannula was unplugged and the lock solution (150-200 μl of 50-100 U/ml of heparin, Sigma Scientific) was removed. To obtain a baseline level of activity, 200 μl of blood was withdrawn prior to injection. 200 μl of TCAP-containing solution was delivered through the cannula, followed by 200 μl of saline to push the TCAP solution through the cannula. 150-200 μl of lock solution was injected to fill the catheter. For subcutaneous (SC) administration, rats were gently restrained and injected under the skin with 200 μl of TCAP-1-containing solution with a 23 gauge needle
Blood samples were obtained from the jugular catheter. Rats were gently restrained, and the IV cannula was unplugged. The lock solution was aspirated along with 150 μl of blood. This mixture was discarded in case of local contamination with high peptide concentrations. A sample of200 μl of blood was obtained in a fresh syringe. The catheter was then flushed with 200 μl of saline and then filled with 150-200 μl of lock solution. Lateral tail vein blood samples were obtained from lightly restrained rats whereby 200 μl of blood was obtained using a 23-gauge needle. A final bleed was achieved via cardiac puncture. […]

[3] = tested on: male GK Wistar rats; assay: Haematology assays in Goto-Kakizaki rats; assay type: in vivo, rat
Method: as §1, §2

[4] = tested on: C2C12 myocytes; assay: 3H-2-deoxyglucose uptake in C2C12 myocytes; assay type: cell-based, mouse; settings: 100 nM, over two hours (FIG. 20)
Method: The effect of TCAP-1 on glucose uptake in muscle cells was examined in a C2C12 mouse myocyte cell line. C2C12 myocytes were cultured in Dulbecco's Modified Eagle Medium (DMEM) containing 4500 mg/L D-glucose, L-glutamine, and 25 mM HEPES buffer, without sodium pyruvate or phenol red (Gibco, Cat. No. 21063029), supplemented with 20% heat-inactivated fetal bovine serum (FBS), 100 U/ml penicillin and 100 μg/ml streptomycin. Cells were maintained at 80% confluency at 37° C. in a humidified CO2 incubator. To initiate differentiation, myocytes were further cultured in DMEM supplemented with 10% heat-inactivated horse serum (HS), transferrin, 100 U/ml penicillin and 100 μg/ml streptomycin. Myocytes were allowed to differentiate into multi-nucleated myotubes for 5 days before experimentation. 24 hours prior to experimentation, medium was changed. At day 5 of differentiation, cells were deprived of serum and incubated in Minimal Essential Medium containing 1000 mg/L D-glucose, L-glutamine, without nucleosides (Gibco, Cat. No. 12561049) for 5 hours at 37° C. prior to incubation with insulin, TCAP-1, or saline. Cells were washed twice in glucose-free HEPES-buffered solution (HBS), containing 140 mM NaCl, 20 mM HEPES, 5 mM KCl, 2.5 mM MgSO4 and 1 mM CaCl2, followed by determinations of transport of 3H-2-deoxyglucose for 10 minutes at 0.5 μCi/ml at room temperature. Uptake of 3H-2-deoxyglucose was stopped immediately after 10 minutes with three washes of ice-cold 0.9% NaCl solution. Parallel experiments with 5 μM of cytochalasin B were done to ensure that glucose uptake was of transporter-inhibitable transport The cells were digested with 1 ml of 0.05 N NaOH. Cell lysates were used for determination of radioactivity by a beta liquid scintillation counter. Experiments were repeated three times with 3 wells per condition per replication. […] Cell lysates were used for determination of radioactivity by a beta liquid scintillation counter. […]

[5] = tested on: mHypoE-38 neurons; assay: 3H-2-deoxyglucose uptake in mHypoE-38 hypothalamic neurons; assay type: cell-based, mouse
Method: The effect of TCAP-1 on glucose uptake in brain cells was examined in immortalized […] hypothalamic cells. Immortalized mHypoE-38 hypothalamic embryonic mouse neurons (gift from Dr. Denise Belsham, University of Toronto) were grown in Dulbecco's Modified Eagle Medium (DMEM) containing 4500 mg/L D-glucose, L-glutamine, and 25 mM HEPES buffer, without sodium pyruvate or phenol red (Gibco, Cat. No. 21063029), supplemented with 5% heat-inactivated fetal bovine serum (FBS), 100 U/ml penicillin and 100 μg/ml streptomycin. Cells were maintained at 60-70% confluency at 37° C. in a humidified CO2 incubator. To passage, cells were washed once in sterile PBS, trypsinized and seeded at a density of 100,000 cells per 3.5 cm plate and allowed to grow for 2-3 days. 24 hours prior to experimentation, medium was changed. mHypoE-38 hypothalamic cells were grown in 6-well tissue culture dishes (Corning Incorporated, Cat. No. 3516) at a seeding density of200 000 cells/9.5 cm^2 well in a 37° C. normoxic incubator. Cultures were grown for 36 hours to 85% confluence prior to experimentation. At day 3 post-plating, cells were washed twice with Locke's buffer (154 mM NaCl, 5.6 mM KCl, 2.3 mM CaCl2, 3.6 mM NaHCO3, 5 mM HEPES) without serum and glucose. The culture was incubated in the Locke's buffer for 1 hour at 37° C. followed by exposure to 100 nM insulin, 100 nM TCAP-1, 100 nM SC-TCAP-1, or saline. KCl (40 mM) and […] (0.5 μCi/ml) were added to culture 5 minutes before termination of treatment exposure. Uptake of ^3H-2-deoxyglucose was stopped immediately after 5 minutes with three washes of ice-cold 0.9% NaCl solution. Parallel experiments with 5 μM of cytochalasin B were performed to ensure that glucose uptake was of transporter-inhibitable transport. The cells were digested with 1 ml of 0.05 N NaOH at 0, 15, 30, 45, 60, 90 and 120 minutes after treatment. Cell lysates were used for determination of radioactivity by a beta liquid scintillation counter. Experiments were repeated three times with 3 wells pear condition per replication. […] hypothalamic cells were cultured as above and treated with 100 nM insulin, 100 nM TCAP-1 or saline, exposed to 5.6 mM or 40 mM KCl and 0.5 μCi/well 3H-2-deoxy glucose, and subsequently lysed with 50 mM NaOH. Radioactivity in cell lysates was counted using a liquid scintillation counter.

haemoglobin concentrations ([1]; Wistar rats, 1 or 10 nmole/kg (FIG. 6A)): No significant results were observed
hematocrit counts ([1]; Wistar rats, 1 or 10 nmole/kg (FIG. 6B)): No significant results were observed
platelet counts ([1]; Wistar rats, 1 or 10 nmole/kg (FIG. 6C)): No significant results were observed
red blood cell counts ([1]; Wistar rats, 1 or 10 nmole/kg (FIG. 6D)): No significant results were observed
levels of white blood cells, neutrophils or lymphocytes ([1]; Wistar rats, 1 or 10 nmole/kg (FIG. 6E)): No significant results were observed
monocytes, basophils or eosinophils ([1]; Wistar rats, 1 or 10 nmole/kg (FIG. 6F)): No significant results were observed
time of peak in plasma ([2]; IV administered, rat plasma): ≤ 1 min
time until cleared from plasma ([2]; IV-treated animals): about 100 min
time to 50% loss from plasma ([2]; SC administered, rat plasma): about 90 min
time until cleared from plasma ([2]; SC treated animals, highest dose of 125 ng/kg): about 170 min
half-life ([2]; iv, highest dose, read-out: plasma clearance half-life): 16 ± 4 min
half-life ([2]; iv, lowest dose, read-out: plasma clearance half-life): 4 ± 1 min
half-life ([2]; iv, mid dose, read-out: plasma clearance half-life): 7 ± 2 min
half-life ([2]; sc, highest dose, read-out: clearance time (plasma clearance half-life)): 36 ± 20 min
half-life ([2]; sc, lowest dose, read-out: clearance time (plasma clearance half-life)): 40 ± 4 min
half-life ([2]; sc, mid dose, read-out: clearance time (plasma clearance half-life)): 50 ± 11 min
haemoglobin concentrations ([3]; 10 nmole/kg (FIG. 6G)): No significant results were observed
hematocrit counts ([3]; 10 nmole/kg (FIG. 6H)): No significant results were observed
platelet counts ([3]; 10 nmole/kg (FIG. 6I)): No significant results were observed
red blood cell counts ([3]; 10 nmole/kg (FIG. 6J)): No significant results were observed
levels of white blood cells, neutrophils or lymphocytes ([3]; 10 nmole/kg (FIG. 6K)): No significant results were observed
monocytes, basophils or eosinophils ([3]; 10 nmole/kg (FIG. 6L)): No significant results were observed
Substance: QQLLGTGRVQGYDGYFVLSVEQYLELSDSANNIHFMRQSEI-NH2 (C-terminus assumed) [TCAP-1]
clot formation in blood samples ([1]; observation on collected blood samples): clots formed more frequently in the blood samples of TCAP-1 treated rats
white blood cells, neutrophils and lymphocytes, trend ([3]; results called variable and inconclusive): appears to be a decrease in white blood cells, neutrophils and lymphocytes

Substance: pETHSLELRVSLIGEVQQFIGYENQSDQNYGLLAYFDRVGMS-NH2 ([pGlu]THSLELRVSLIGEVQQFIGYENQSDQNYGLLAYFDRVGMS-NH2) [scTCAP-1, scrambled TCAP control with same amino acid composition but different order, pyroglutamic acid in first position]
3H-2-deoxyglucose uptake signal [4]: lack of positive signal
3H-2-deoxyglucose uptake value relative to baseline ([5]; 100 nM, 40 mM KCl, 60 minutes): 61.523±7.545%
3H-2-deoxyglucose uptake relative to baseline ([5]; 100 nM, 40 mM KCl, 90 minutes): 68.020±4.812%
3HDG uptake in whole cells over time ([5]; Hypo-E38 cells (FIG. 11C-E)): no significant glucose uptake

Source: patent publication US10617736B2, “Method for modulating insulin-independent glucose transport using teneurin C-terminal associated peptide (TCAP)” (priority 2014, dated 2020)
